# Laboratory results: patent publication US20110281852A1 (priority 2010, published 2011)
# Key:
# in vitro = conditions: mouse, 3T3-L1 cells during differentiation
# Method: Cell culture: 3T3-L1 cells were cultured at 37° C. in a humidified 5% CO2 atmosphere and grown in a culture medium (CM) (DMEM supplemented with 10% FBS, 100 units/ml penicillin and […] streptomycin). Differentiation conditions for 3T3-L1 were as described (Dowell et al, 2000). Briefly, confluent 3T3-L1 cells were maintained in culture medium for 48 hrs (day 0). Cells were placed in Differentiation Medium 1 (DM1) (CM with 167 nM insulin, 520 μM isobutylmethylxanthine (IBMX), and 1 μM dexamethasone) for a further 48 hrs (Day 2). The medium was then changed to differentiation medium 2 (DM2) (CM with 167 nM insulin) for a further 48 hrs (Day 4). The DM2 was then changed every 48 hrs for an additional 4 days (Day 8).
# Culture medium was removed at 24, 48 and 72 hrs and MTT (0.5 mg/ml in pure DMEM, 50 μl/well) was added.
# 3T3-L1 cells = assay: MTT assay, 3T3-L1 viability during differentiation with clozapine, risperidone, berberine (Example 2); type: cell-based, mouse; conditions: day 8
# Method: Cell culture and drug treatment: 3T3-L1 cells (American Type Culture Collection, Manassas, Va., USA) were cultured at 37° C. in a humidified 5% CO2 atmosphere and grown in a DMEM (Sigma-Aldrich, St. Louis, Mo. USA) supplemented with 10% Fetal Bovine Serum (FBS, Atlanta Biologicals Corp., Lawrenceville, Ga., USA), 100 units/ml penicillin and 100 μg/ml streptomycin. Differentiation was induced by addition of 167 nM insulin, 520 μM isobutylmethylxanthine (IBMX), and 1 μM dexamethasone for 2 days and then only with 167 nM insulin for 6 days. Detailed protocol was described as our previous report (Hu et al., Phytomedicine (2009) 16(9):864-873).
# Medium was removed after differentiation and treatment for 8 days, MTT (Methylthiazolyldiphenyl—tetrazolium bromide 0.5 mg/ml, 50 μl/well) was added.
# SREBP-1 = assay: Real-time RT-PCR, SREBP-1 mRNA in 3T3-L1; type: cell-based, mouse; conditions: 8 days
# From the text: (§1) Realtime RT-PCR: Real-time reverse transcriptase polymerase chain reaction (RT-PCR) analysis was used to measure mRNA expression of genes SREBP-1, PPARγ, C/EBPα, low density lipoprotein receptor (LDLR), Adiponectin, and fatty acid synthase (FAS) under the control of β-actin. Briefly, total RNA was isolated from 3T3-L1 cells following treatment for 8 days with Trizol reagent (Invitrogen, Carlsbad, Calif., USA) according to the manufacturer's instruction. RNA was quantified using absorption of light at 260 nm, and sample purity was checked by OD 260 nm/280 nm. 0.8 μg of total RNA from each sample was used for reverse transcription reaction using the TaqMan Reverse Transcription Reagents (Applied Biosystems, Foster City, Calif., USA) according to the manufacturers' instructions. PCR was done using the SYBR green Master Mix (Applied Biosystems, Foster City, Calif., USA) according to the manufacturers' instructions. The temperature cycling conditions of amplification were as follows: an initial step of denaturation at 95° C. for 10 min, 40 cycles of denaturation at 95° C. for 30 s, annealing at 55° C. for 30 s, and elongation at 72° C. for 30 s. Realtime RT-PCR was performed using Mx3000P Realtime Thermocyclers (Statagene, La Jolla, Calif., USA). The relative mRNA levels of these genes were calculated by 2-delta delta CT method and normalized with control groups.
# PPARγ [1] = assay: Real-time RT-PCR, PPARγ mRNA in 3T3-L1; type: cell-based, mouse; conditions: 8 days
# From the text: as §1
# [2] = test system: low density lipoprotein receptor (LDLR); assay: Real-time RT-PCR, LDLR mRNA in 3T3-L1; type: cell-based, mouse; conditions: 8 days
# From the text: as §1
# Adiponectin = assay: Real-time RT-PCR, Adiponectin mRNA in 3T3-L1; type: cell-based, mouse; conditions: 8 days
# From the text: as §1
# [3] = test system: fatty acid synthase (FAS); assay: Real-time RT-PCR, FAS mRNA in 3T3-L1; type: cell-based, mouse; conditions: 8 μM berberine + 50 μM risperidone, 8 days
# From the text: as §1
# [4] = Body weight gain, high-fat diet-induced obesity mice and normal diet mice; type: in vivo, mouse
# From the text: Six mice per subgroup were obtained finally.
# PPARγ [5] = assay: Real-Time RT-PCR, PPARγ mRNA in epididymal fat of FD mice; type: in vivo, mouse
# Method: (§2) RNA and protein purification and quantification from epididymal fat tissues: RNA and protein was isolated from 60 mg of epididymal fat tissues with Trizol (Invitrogen, Carlsbad, Calif., USA) following the protocol recommended by the manufacturers. RNA was dissolved in pure water and quantified at 260/280 nm, and sample integrity was checked by 1.5% agarose gel electrophoresis. Protein concentration was determined using the Micro BCA Protein Assay Kit (Fisher Scientific, Pittsburgh, Pa., USA) according to the manufacturer's instructions.
# (§3) Quantitative Real-Time RT-PCR: Real-Time reverse transcriptase polymerase chain reaction (RT-PCR) analysis was used to measure mRNA expression of genes PPARγ, C/EBPα, GATA-2 and GATA-3 in the control of β-actin. Total RNA (0.8 μg) from each sample was used for a reverse transcription reaction using the TaqMan Reverse Transcription Reagents (Applied Biosystems, Foster City, Calif., USA) following the manufacturer's instructions. PCR was done using the SYBR green Master Mix (Applied Biosystems, Foster City, Calif., USA) following the manufacturer's instructions. The cycling conditions of amplification were as follows: an initial step of denaturation at 95° C. for 10 min, 40 cycles of denaturation at 95° C. for 30 s, annealing at 55° C. for 30 s, and elongation at 72° C. for 30 s. Real-Time PCR was performed using Mx3000P Real-Time Thermocyclers (Stratagene, La Jolla, Calif., USA). The relative mRNA levels of these genes were calculated by 2-delta delta CT method and normalized with control-treated groups.
# C/EBPα = assay: Real-Time RT-PCR, C/EBPα mRNA in epididymal fat of FD mice; type: in vivo, mouse
# Method: as §2, §3
# [6] = test system: SERT (serotonin transporter); assay: Immunoblot, SERT protein in RN46A cells; type: cell-based
# Method: Immunoblot Analysis: Protein expression of SERT was assessed by Western Blot. Total proteins were isolated from RN46A cells treated with compounds or vehicles. The cells were washed twice with PBS, lysed in a lysis buffer containing HEPES-Tx-PI buffer: 910 mM HEPES, 5 mM EDTA, 350 mM Sucrose, 1 μg/ml leupeptin, 1 μg/ml pepstatin, 1% Triton-X, 1 mM PMSF), processed with a 25G needle and centrifuged at 10,000 rpm for 5 min. Protein concentration was determined using the Micro BCA Protein Assay Kit (Fisher Scientific, Pittsburgh, Pa., USA) according to the manufacturers instructions. 25 μg proteins were loaded and separated by electrophoresis using the BioRad Electrophoretic System (60 V for 1 hour followed by 90 V for 5 hours). The proteins were then transferred to nitrocellulose membranes at 35 V overnight. The membrane was blocked for 1 hour at room temperature in 5% nonfat milk in Tris-buffered saline (TBS), then washed with Tween-20-TBS (TTBS, 0.1% Tween-20) three times (15 min, 5 min, 5 min), followed by incubation with primary antibodies SERT (dilution 1:200) (Antibody was purchased from Santa Cruz Biotechnology, Santa Cruz, Calif., USA) and β-actin (dilution 1:1000) (Antibody was purchased from Sigma-aldrich, USA) at room temperature for 2 hours. […]
# [7] = 8 μM berberine + 15 μM clozapine
# [8] = 8 μM berberine + 50 μM risperidone
compound,measurement,setting,value
"COc1ccc2cc3[n+](cc2c1OC)CCc1cc2c(cc1-3)OCO2.[Cl-] [berberine, Berberine (Chloride Form)]","cytotoxicity at 2 days, 8 μM",in vitro,15.6%
same,"cytotoxicity at 4 days, 8 μM",in vitro,12.8%
same,"cytotoxicity at 6 days, 8 μM",in vitro,12.6%
same,"cytotoxicity at 8 days, 8 μM",in vitro,11.4%
same,decrease of cell viability vs no berberine treated group,3T3-L1 cells; 8 μM berberine combined with 0 μM clozapine,22.3%
same,decrease of cell viability vs no berberine treated group,3T3-L1 cells; 8 μM berberine combined with 0 μM risperidone,17.8%
same,decrease of cell viability vs no berberine treated group,3T3-L1 cells; 8 μM berberine combined with 15 μM clozapine,16.5%
same,decrease of cell viability vs no berberine treated group,3T3-L1 cells; 8 μM berberine combined with 25 μM risperidone,19.5%
same,decrease of cell viability vs no berberine treated group,3T3-L1 cells; 8 μM berberine combined with 30 μM clozapine,15%
same,decrease of cell viability vs no berberine treated group,3T3-L1 cells; 8 μM berberine combined with 50 μM risperidone,20.2%
same,decrease of SREBP-1 mRNA expression vs clozapine treated group,SREBP-1; [7],68.9%
same,decrease of SREBP-1 mRNA expression vs risperidone treated group,SREBP-1; [8],80.9%
same,decrease of PPARγ mRNA expression vs clozapine treated group,PPARγ [1]; [7],87.7%
same,decrease of PPARγ mRNA expression vs risperidone treated group,PPARγ [1]; [8],93.1%
same,decrease of LDLR mRNA expression vs clozapine treated group,[2]; [7],82.3%
same,decrease of LDLR mRNA expression vs risperidone treated group,[2]; [8],90%
same,decrease of adiponectin mRNA expression vs clozapine treated group,Adiponectin; [7],96.3%
same,decrease of Adiponectin mRNA expression vs risperidone treated group,Adiponectin; [8],98.2%
same,decrease of FAS mRNA expression vs risperidone treated group,[3],85.5%
same,body weight gain,"[4]; FD mice, 0.75 mg/kg/day i.p., 36 days (control 4.3±0.6)",1.5±0.7 g/mouse
same,body weight gain,"[4]; FD mice, 1.5 mg/kg/day i.p., 36 days",1.9±0.7 g/mouse
same,body weight gain,"[4]; FD mice, 3 mg/kg/day i.p., 36 days",1.4±0.5 g/mouse
same,body weight gain,"[4]; ND mice, 3 mg/kg/day i.p., 36 days (control 2.3±0.9)",2.5±0.7 g/mouse
same,reduction of PPARγ mRNA expression vs control treated group,PPARγ [5]; 0.75 mg/kg/day,56.1%
same,reduction of PPARγ mRNA expression vs control treated group,PPARγ [5]; 1.5 mg/kg/day,57.7%
same,reduction of PPARγ mRNA expression vs control treated group,PPARγ [5]; 3 mg/kg/day,78.3%
same,decrease of C/EBP-α mRNA expression vs control group,C/EBPα; 0.75 mg/kg/day,46.4%
same,decrease of C/EBP-α mRNA expression vs control group,C/EBPα; 1.5 mg/kg/day,66.1%
same,decrease of C/EBP-α mRNA expression vs control group,C/EBPα; 3 mg/kg/day,72.7%
evodiamine,SERT protein expression profile (Western blot),[6],consistent with its mRNA expression profile
